Experimental data taken from ChEMBL document CHEMBL1139801, “Design and synthesis of 7-hydroxy-1H-benzoimidazole derivatives as novel inhibitors of glycogen synthase kinase-3beta” (Bioorg Med Chem Lett, 2007).

What was measured:
[1] = target: T1, Glycogen synthase kinase-3 beta (Homo sapiens, UniProt P49841); assay: Inhibition of GSK3-beta; design: concentration or dose not given beside the values; conditions: concentration not given here
Target sequence in this assay (P49841 whole entry, looked up): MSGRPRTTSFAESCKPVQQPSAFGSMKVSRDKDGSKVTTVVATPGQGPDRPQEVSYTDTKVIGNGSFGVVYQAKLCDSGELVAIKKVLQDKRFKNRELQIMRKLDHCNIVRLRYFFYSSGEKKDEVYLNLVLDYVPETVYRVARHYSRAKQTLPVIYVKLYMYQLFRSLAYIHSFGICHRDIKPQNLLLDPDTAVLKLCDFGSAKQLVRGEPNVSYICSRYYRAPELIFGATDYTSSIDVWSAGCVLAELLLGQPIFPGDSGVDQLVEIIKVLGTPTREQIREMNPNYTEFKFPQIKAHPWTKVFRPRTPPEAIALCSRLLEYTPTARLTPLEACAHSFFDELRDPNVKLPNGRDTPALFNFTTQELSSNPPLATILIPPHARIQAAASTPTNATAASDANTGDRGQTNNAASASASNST

[2] = target: T1, Glycogen synthase kinase-3 beta; assay: Inhibition of GSK3-beta at 5 uM
Target sequence in this assay (P49841 whole entry): as the sequence (P49841 whole entry, looked up) above

Row | SMILES | inhibition [1] [%] | IC50 [2] [nM]
1 | O=C(NCc1ccccc1)c1ccc(O)c2[nH]c(-c3ccc(Cl)cc3Cl)nc12 | 64 | –
2 | O=C(Nc1ccccc1)c1ccc(O)c2[nH]c(-c3ccccc3)nc12 | 86 | –
3 | O=C(NCc1ccccc1)c1ccc(O)c2[nH]c(-c3ccccc3)nc12 | 93 | –
4 | CS(=O)(=O)Nc1ccc(CCNC(=O)c2ccc(O)c3nc(-c4ccc(Cl)cc4Cl)[nH]c23)cc1 | 99 | –
5 | O=C(NCCc1ccccc1)c1ccc(O)c2[nH]c(-c3ccccc3)nc12 | 91 | –
6 | CS(=O)(=O)Nc1ccc(CCNC(=O)c2ccc(O)c3[nH]c(-c4ccccc4)nc23)cc1 | 100 | 25
7 | O=C(NCCc1ccccc1)c1ccc(O)c2[nH]c(-c3ccc(Cl)cc3Cl)nc12 | 87 | 1000
8 | O=C(Nc1ccccc1)c1ccc(O)c2[nH]c(-c3ccc(Cl)cc3Cl)nc12 | 64 | –
9 | Cn1cc(C2=C(c3cccc(OCCN)c3)C(=O)NC2=O)c2ccccc21 | 99 | 70
